From patent publication US20230158177A1, “HYPOXIA-TARGETING CONTRAST AGENT AND METHODS OF USE THEREOF” (Arizona Board of Regents on behalf of Arizona State …, priority 2021, published 2023)
“And” between values parts separate entries of the source, which are not always exact repeats. Equal entries are not always repeated.

Assays:
[1] = mouse; cited from earlier work
[2] = cited from earlier work
3T3 fibroblast cells = assay: In vitro hypoxia-targeting study: T1 and T2 MRI of cell pellets; format: cell-based; conditions: for Relaxation time T1 of exposed cell pellets / Relaxation time T2 of exposed cell pellets: 7 T; for contrast agent concentration in cell pellet: from the relaxivity equation for transverse relaxation rate
Procedure: The in vitro study for hypoxia-targeting efficiency of FOBNI was assessed in a hypoxia chamber glove box capable of adjusting oxygen concentration, temperature and CO2 and equipped with a small centrifuge unit. The 3T3 fibroblast cells were grown in a T-150 flask once they reached the confluency of 80% divided equally to five T-75 flasks to ensure the flasks were identical before being exposed to contrast agents and different conditions. The cells were supplied with Dulbecco's Modified Eagle Medium (DMEM), fetal bovine serum (10%), and penicillin/streptomycin (1%). Once the five flasks reached the confluency of 75-80% the growth media were replaced with the following mediums.
Two flasks were supplied with fresh culture media supplemented with DFOB, two with fresh media and FOBNI and one with just fresh media as control. The control and one FOB and one FOBNI labeled flasks were placed in a regular cell incubator at 21% O2, 5% CO2 and 37° C. and the remaining two flasks were transferred to the hypoxia chamber at 1% O2, 5% CO2 and 37° C. All the samples were kept at defined conditions for 4 h before removing the media. The cells were washed three times with phosphate buffered saline (PBS) at the end of four hour incubation and were detached by being exposed to trypsin for 5 min. The collected cell mixtures in Eppendorf Tube were centrifuged at 1000 rpm for 5 min and the medium was removed. Afterwards, the cell pellets were suspended in PBS and again centrifuged three times to ensure the removal of unbound or free DFOB or FOBNI. Finally, to keep the cell pellets intact the tubes were filled with low temperature liquid agar and placed in the fridge to solidify.
MR Imaging—The samples were imaged using a rat brain surface coil at 7 T. The voxel wise T1 and T2 maps of the samples were calculated using MATLAB based software and the images from Variable Repetition Time Fast Spin Echo (VTR) Sequence and multi-echo spin echo sequence, respectively. The VTR sequence was performed with TE=8 ms and thirteen TR values ranging between (205-5000 ms). The images in multi-echo sequence were acquired with TE ranging between 8-200 ms and TR=5000 ms. The field of view was 2.56 cm×2.56 cm and the matrix size of 64×64 for all the experiments. The ROI analysis to calculate the T1 and T2 values for cell pellets were performed in MATLAB.
Statistics—All results are reported as means±standard deviations (SD). For statistical comparisons unpaired t-test was employed and confidence intervals α=0.05, 95% was used between specific means.

[3] = Relaxometry: relaxivity in a water phantom at 7T; format: physicochemical; conditions: for longitudinal relaxivity r1 / transverse relaxivity r2: in water; for longitudinal relaxivity r1: slope of linear fit of R1 vs [C]; for transverse relaxivity r2: slope of linear fit of R2 vs [C]
Procedure: The basic paramagnetic properties i.e., relaxivity of chelated DFOB (FOB) and FOBNI was measured at 7T using a preclinical Bruker MRI scanner. The relaxivity of the two molecules were studied using a home-made 3D printed phantom capable of controlling temperature. The phantoms contained nine different concentrations of each contrast agents in water from 0-4 mM for FOB and 0-10 mM for FOBNI. The imaging parameters for this study were as matrix size 64×64, the field of view 2.56 cm×2.56 cm and TR=205-5000 ms, […] for the T1 map and TR=5000 ms, TE=8-200 ms for the T2 map. The MR images were later analyzed in a homemade MATLAB code to calculate the T1 and T2 values for each pixel. Using the T1 and T2 values for each concentration and Ri=[C]ri+Ri^0 equation the relaxivity values were calculated by a linear fit on Ri and [C]. Where Ri (i=1 or 2) is the relaxation rate of the tissue, [C] is the concentration of the contrast agent, ri is the relaxivity of the contrast agent and the Ri^0 is the intrinsic relaxation rate of the water. FIG. 7A and FIG. 7B show the T1 and T2 maps for the phantom and a concentration map indicating the concentrations of FOB and FOBNI in each respective well.
FIG. 8 represents the result of the linear fit for R1 and R2 for the two contrast agents. […] Using the linear fit function, the following equations are acquired for relaxation rate vs concentration, R1=(2.06±0.06)[C]+(0.49±0.04) (in red) and R2=(2.75±0.06)[C]+(3.75±0.08) (in gray) for FOB and R1=(0.51±0.1)[C]+(0.44±0.03) (in red) and R2=(4.51±0.14)[C]+(3.87±0.19) (in gray) for FOBNI.

NIH-3T3 fibroblast cells = assay: Cytotoxicity: cell viability assay using Alamar blue; format: cell-based; conditions: for cell viability (Alamar blue): hypoxic and normoxic conditions
Procedure: To study the cytotoxicity of DFOB, NIH-3T3 fibroblast cells were used. The cells were exposed to different concentrations of DFOB for 4, 8, and 24 h under either hypoxic or normoxic conditions. Afterwards, the cells were washed with PBS and exposed to 10% Alamar blue in media for 4 h in their respective conditions. To assess the viability of the cells 100 µl of the exposed Alamar blue was collected in a 96-well plate using the spectrophotometer the absorbance was measured at 570 nm and 600 nm excitations and the viability of the cells was calculated.
Cytotoxicity assay for FOBNI was a viability test using Alamar blue. The results are summarized in FIG. 5 for normoxic conditions and FIG. 6 for hypoxic conditions. […] The increased viability, which is a translation of reduced Alamar blue in control samples of 8 h and 24 h can be attributed to the increased number of the cells in the control wells. After seeding the cells the cell number in the control wells could increase and that can influence the amount of reduced compound in absorbance test.

[4] = hypoxic (H), 1% O2, 4 h exposure
[5] = normoxic (N), 21% O2, 4 h exposure

Row | Compound | circulation half-time [1] | cell permeability [2] | Relaxation time T1 of exposed cell pellets (3T3 fibroblast cells; [4]) | Relaxation time T2 of exposed cell pellets (3T3 fibroblast cells; [4]) | increase in pellet concentration, FOBNI vs FOB (3T3 fibroblast cells; hypoxic condition) | contrast agent concentration in cell pellet (3T3 fibroblast cells; hypoxic) | Relaxation time T1 of exposed cell pellets (3T3 fibroblast cells; [5]) | Relaxation time T2 of exposed cell pellets (3T3 fibroblast cells; [5]) | contrast agent concentration in cell pellet (3T3 fibroblast cells; normoxic) | cellular uptake after addition of nitroimidazole moiety (3T3 fibroblast cells; vs FOB, seen in T2 values under normoxic conditions) | decrease in r1 value compared to FOB [3] | longitudinal relaxivity r1 [3] | transverse relaxivity r2 [3] | cell viability (Alamar blue) (NIH-3T3 fibroblast cells; 100-400 μM, up to 24 h exposure, control of the 4 h exposure used, n=3) | cell viability (Alamar blue) (NIH-3T3 fibroblast cells; after 8 h and 24 h of exposure, control of each time point used) | cytocompatibility (cell viability assay) (NIH-3T3 fibroblast cells; up to 8 h of direct exposure to the cells)
1 | CC(=O)N(O)CCCCCNC(=O)CCC(=O)N(O)CCCCCNC(=O)CCC(=O)N(O)CCCCCN [DFOB, Deferoxamine B] | about 5 min | very low cell permeability |  |  |  |  |  |  |  |  |  |  |  |  |  | 
2 | Feroxamine B conjugate of 2-nitroimidazole [FOBNI] |  |  | 1909 ± 162 ms | 32.4 ± 3.4 ms | 1.73 fold | 5.98 mM | 1793 ± 165 ms | 59.3 ± 9.3 ms | 2.88 mM | increased the cellular uptake | about 75% | 0.51 L/s/mmol and 0.51 ± 0.1 L/s/mmol | 4.51±0.14 | no significant reduction | significant drop in cell viability | cytocompatibility
3 | CC(=O)N([O-])CCCCCNC(=O)CCC(=O)N([O-])CCCCCNC(=O)CCC(=O)N([O-])CCCCCN.[Fe+3] [FOB, Feroxamine B, reference compound] |  |  | 2002 ± 143 ms | 75.5 ± 15.0 ms |  | 3.45 mM | 2280 ± 222 ms | 89.9 ± 11.21 ms and 89.9 ± 11.2 ms | 2.67 mM |  |  | 2.06 ± 0.06 L/s/mmol | 2.75±0.06 |  |  | 
